Results: patent publication US20090214464A1, “COMPOUNDS FOR FLAVIVIRIDAE TREATMENT” (priority 2004, published 2009)

How the values were obtained:
[1] = system: Balb/c mice spleen cells stimulated with irradiated CBA spleen cells; assay: Mixed Lymphocyte Reaction (MLR); assay type: cell-based
Excerpt: Cyclosporins which bind strongly to cyclophilin but are not immunosuppressive have been identified. A cyclosporin is considered to be non-immunosuppressive when it has an activity in the Mixed Lymphocyte Reaction (MLR) of no more than 5%, preferably no more than 2%, that of cyclosporin A. The Mixed Lymphocyte Reaction is described by T. Meo in “Immunological Methods”, L. Lefkovits and B. Peris, Eds., Academic Press, N.Y. pp. 227-239 (1979). Spleen cells (0.5×10^6) from Balb/c mice (female, 8-10 weeks) are co-incubated for 5 days with 0.5×10^6 irradiated (2000 rads) or mitomycin C treated spleen cells from CBA mice (female, 8-10 weeks). The irradiated allogeneic cells induce a proliferative response in the Balb c spleen cells which can be measured by labeled precursor incorporation into the DNA. […] The IC50 found for the test compound in the MLR is compared with that found for cyclosporin A in a parallel experiment. In addition, non-immunosuppressive cyclosporins lack the capacity of inhibiting CN and the downstream NF-AT pathway.
IR=immunosuppressive Ratio, expressed as a percentage of the activity relative to Cyclosporin A.

[2] = molecular target: human recombinant cyclophilin (Homo sapiens, UniProt P62937); assay: competitive ELISA test of cyclophilin binding (Binding Ratio); conditions: relative to cyclosporin A in a simultaneous test
Description: A cyclosporin is considered as binding to cyclophilin if it binds to human recombinant cyclophilin at least one fifth as well as does cyclosporin A in the competitive ELISA test described by Quesniaux in Eur. J. Immunol. […] The results are expressed as the Binding Ratio (BR), which is the log to the base 10 of the ratio of the IC50 of the test compound and the IC50 in a simultaneous test of cyclosporin A itself.

[3] = system: HCV subgenomic replicon in MH-14 cells; assay: immunoblot analysis of HCV NS5A and NS5B proteins in MH-14 HCV replicon cells; assay type: cell-based; conditions: 7 days
Description: (§1) Cell culture: Huh-7 and MH-14 cells, HCV replicon cells, are cultured in Dulbecco's modified Eagle's medium (DMEM) with 10% fetal bovine serum (FBS). PH5CH8 cells are cultured in a 1:1 mixture of DMEM and F12 medium supplemented with 100 ng/ml of epidermal growth factor, 10 μ/ml of insulin, 0.36 μg/ml of hydrocortisone, 5 μg/ml of transferrin, 5 μg/ml of linoleic acid, 20 ng/ml of selenium, 4 μg/ml of glucagon, 10 ng/ml of prolactin, 10 μg/ml of gentamicin, 200 μg/ml of kanamycin, and 2% FBS.
Immunoblot analysis: Immunoblot analysis is performed as described by K. Watashi et al., Virology 2001, 286, 391-402. The primary antibodies used in this experiment are anti-NS5A, anti-NS5B, and anti-β-actin (Sigma) antibodies.
The effect of various cyclosporins of the invention on the replication of the HCV genome using MH-14 cells, in which the HCV subgenomic replicon as shown in FIG. 1A is autonomously replicated.

[4] = system: HCV in PH5CH8 cells (non-neoplastic hepatocyte cell line); assay: in vitro HCV infection experiment in PH5CH8 cells; assay type: cell-based; conditions: PH5CH8 cells treated continuously; untreated cells increase about 10-fold
Description: as §1
(§2) Real time RT-PCR analysis: The 5′-UTR of HCV genome RNA is quantified using the ABI PRISM 7700 sequence detector (AppliedBiosystems) as described by T. Takeuchi et al., Gastroenterology, 1999, 116, 636-642. The forward and reverse primers used in this experiment are 5′-[…]-3′ and 5′-[…]-3′, respectively. The fluorogenic probe is 5′-[…]-3′. As an internal control, ribosomal RNA is also quantified using TaqMan Ribosomal RNA Control Reagents (Applied Biosystems).

[5] = system: HCV subgenomic replicon in MH-14 cells; assay: northern blot analysis of replicon RNA in MH-14 cells; assay type: cell-based; conditions: 1 μg/ml, 7 days
Description: as §1
Northern blot analysis: Northern blot analysis is performed as described by H. Kishine et al., Biochem. Biophys. Res. Commun., 2002, 47, 119-125. The probe complementary to the NS5B sequence used in this experiment is described by H. Kishine, supra.
(§3) Replicon RNA is analyzed in MH-14 cells treated with or without a cyclosporin of the invention or IFNα for 7 days by northern blot analysis.

[6] = system: HCV subgenomic replicon in MH-14 cells; conditions: 7th day
Description: as §2, §3

[7] = system: HCV; conditions: ribavirin alone; cited from earlier work

human recombinant cyclophilin, sequence (P62937 whole entry): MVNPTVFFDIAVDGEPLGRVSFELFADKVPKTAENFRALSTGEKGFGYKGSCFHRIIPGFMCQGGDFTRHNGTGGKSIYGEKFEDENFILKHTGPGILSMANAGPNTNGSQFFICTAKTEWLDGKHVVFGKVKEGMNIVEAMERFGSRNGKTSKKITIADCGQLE

Compound | IR (immunosuppressive Ratio, percentage of the activity relative to Cyclosporin A) [1] [%] | BR (Binding Ratio: log to the base 10 of the ratio of the IC50 of the test compound and the IC50 of cyclosporin A) [2] | other results
[γ-hydroxy-MeLeu]^9-Ciclosporin | 2.9 | 0.15 | –
[Ethyl-Val]^4-Ciclosporin | – | 0 | –
[MeVa]^4-Ciclosporin | – | 0.1 | –
IFNα | – | – | amount of HCV NS5A and NS5B proteins by immunoblot analysis ([3]; 100 U/ml, positive control): undetectable; increase of HCV RNA genome titer, 5th day versus 1st day post-inoculation [4]: not observed
[8′-hydroxy-MeBmt]^1-Ciclosporin | 1.8 | 0.35 | –
[MeAla]^6-Ciclosporin | 3.2 | −0.4 | –
[Melle]^4-Ciclosporin | – | −0.2 | amount of HCV NS5A and NS5B proteins by immunoblot analysis ([3]; 1 μg/ml): undetectable; amount of replicon RNA by northern blot [5]: undetectable level; level of HCV RNA relative to the original [6]: about 1/400; increase of HCV RNA genome titer, 5th day versus 1st day post-inoculation [4]: not observed
NC(=O)c1ncn([C@@H]2O[C@H](CO)[C@@H](O)[C@H]2O)n1 [Ribavirin, 1-β-D-ribofuranosyl-1-1,2,4-triazole-3-caroxamide] | – | – | patients with serum amino transferase levels reduced to normal [7]: 40 % of patients; serum levels of HCV-RNA [7]: does not lower
[MeVal]^5-Ciclosporin | 5.3 | 0.4 | –
[Ethyl-Ile]^4-Ciclosporin | – | 0.1 | –
